{
  "source": "patent US12037329B2",
  "about": "“SphK inhibitors and methods of making and using same” (Washington University, priority 2021, dated 2024)",
  "key": {"[1]": {"molecular_target": "SphK2 (Homo sapiens (Human), UniProt Q9NRA0)", "sequence (Q9NRA0 whole entry)": "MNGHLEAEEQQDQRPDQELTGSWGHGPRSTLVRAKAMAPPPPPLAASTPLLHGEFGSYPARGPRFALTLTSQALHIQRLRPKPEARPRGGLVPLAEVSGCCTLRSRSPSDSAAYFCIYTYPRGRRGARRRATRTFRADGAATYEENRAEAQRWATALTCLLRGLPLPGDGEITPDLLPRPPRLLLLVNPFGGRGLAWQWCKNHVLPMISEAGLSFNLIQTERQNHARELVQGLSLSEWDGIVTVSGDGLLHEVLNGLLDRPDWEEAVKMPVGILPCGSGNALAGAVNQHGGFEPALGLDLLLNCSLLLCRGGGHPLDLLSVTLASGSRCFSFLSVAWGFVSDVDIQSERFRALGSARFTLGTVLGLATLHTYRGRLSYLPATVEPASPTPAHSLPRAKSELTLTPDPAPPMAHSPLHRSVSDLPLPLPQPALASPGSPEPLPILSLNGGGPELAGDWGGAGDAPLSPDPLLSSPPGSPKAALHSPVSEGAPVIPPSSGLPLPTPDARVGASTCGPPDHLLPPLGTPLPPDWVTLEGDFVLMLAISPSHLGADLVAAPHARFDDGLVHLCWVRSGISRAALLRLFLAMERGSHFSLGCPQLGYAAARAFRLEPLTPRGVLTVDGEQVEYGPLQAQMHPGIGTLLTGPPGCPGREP", "experiment": "ADP-Glo kinase assay, SphK2", "assay_type": "biochemical", "conditions": "for selectivity/specificity for SphK2 over SphK1: 125 μM of each compound, SphK2 versus SphK1, FIG. 5; for pIC50: ADP-Glo assay, 50 μM ATP, recombinant human SphK2", "source_text": "The bioluminescence-based kinase assay such as ADP-Glo assay measures ADP formed from a kinase reaction with a luciferase. Upon the completion of a kinase reaction, the remaining ATP is depleted, the ADP produced in the kinase reaction is then converted to ATP and the detection is based on a sensitive and robust bioluminescence reaction. It has a broad linear range of ATP concentrations and high dynamic range. To determine the inhibition activity of the compounds, the ADP-Glo kinase assay was used which was able to detect down to 20% of 1 μM ATP to ADP conversion (FIG. 4A).\nADP-Glo (Promega, Madison, WI) kinase assay were used to evaluate the kinase activity of SphK. ATP to ADP standard curves were prepared in the kinase buffer to assess the linearity of the assay in order to calculate the amount of ADP produced in each tested conditions (FIG. 4A). SB10 (tenfold signal to background ra-tio) of SphK was also determined to evaluate the enzyme perfor-mance and to optimize the kinase reaction condition in this system. In brief, for SphK2, […], 100 μM of D-erythro-Sphingosine (Tocris Bioscience, Minneapolis, MN), and 2 ng of recombinant human SphK2 (R&D Systems, Minneapolis, MN) with desired concentration of each synthesized compound were used for SphK2 kinase reaction. For SphK1, exact same reaction condition was used except 0.5 ng of recombinant human SphK1 was used.\nTo evaluate the SphK selectivity of each compound, 125 μM of each compound in reaction buffer ([…] Tris, pH 8.0, […] MgCl2, and 0.1 mg/mL BSA) with 5% DMSO was incubated with either SphK1 or SphK2 in a 384-well solid white low volume microplate (Corning, Corning, NY), and the reaction was initiated by adding mixture of ATP and D-erythro-Sphingosine to a total volume of 5 μL, after 1 h incubation at room temperature with gentle shaking, the reaction was stopped by adding equal volume of ADP-Glo buffer and incubated for another hour to remove excess amount of ATP from the reaction. Afterwards, 10 μL of kinase detection reagent was added, mixed, and incubated for 30 min under dark. Luminescence output was recorded using a SpectraMax M5 Multi-Mode Microplate Readers (Molecular Devices, San Jose, CA), an integration time of 500 ms was used. All reactions were performed in triplicate. The enzyme activity of SphK in the presence of each compound was normalized to the no treatment control. […] The final data was calculated using Prism 7.0 (GraphPad Software, La Jolla, CA), IC50 was determined using Nonlinear regression (curve fit) four parameters dose-response calculations."}, "[2]": {"test_system": "U-251 MG human glioblastoma cells", "experiment": "U-251 MG cell viability, Hoechst 33258/propidium iodide imaging, 125 μM, 24 h", "assay_type": "cell-based", "method": "Cells were seeded into a 96-well microplate (Corning, Corning, NY) at 3000 cells/well and incubated for approximately 16 h. […] Cells were imaged using MetaXpress High-Content Image Acquisition and Analysis Software 6.1 and ImageXpress Micro XLS Wide-field High-Content Analysis System (Molecular Devices, San Jose, CA). Images were taken with a Nikon 10 CFI Plan Fluor objective. For all samples, triplicated measurements were performed."}, "[3]": {"test_system": "U-251 MG cells", "experiment": "CellTiter96 MTS cell viability dose response, U-251 MG", "assay_type": "cell-based, human", "conditions": "U-251 MG cells, 72 h, MTS; read-out: IC50 (cell viability)", "method": "The anti-tumor activity of these inhibitors was further examined at different doses.\nCell viability was determined using CellTiter96 MTS Assay and compared to DMSO treated control cells. IC50 values were calculated by non-linear regression analysis of the dose-response curve using GraphPad Prism version 8.00 for Windows (GraphPad Software)."}},
  "note": "pIC50: −log10 of the molar value. “Also recorded” adds a separate entry of the source. Counter-ions that a name gives are not always drawn. Like-named read-outs stand apart in the source and are kept apart here.",
  "data": [
    {"compound": "Cl.N=C(N)N1CCC[C@H]1Cc1nc(-c2ccc(Cn3cc(-c4ccccn4)nn3)cc2)no1", "note": "[Compound 21c, (S)-2-((3-(4-((4-(Pyridin-2-yl)-1H-1,2,3-triazol-1-yl)methyl)phenyl)-1,2,4-oxadiazol-5-yl)methyl)pyrrolidine-1-carboximidamide hydrochloride]", "values": [
      {"measurement": "selectivity/specificity for SphK2 over SphK1", "setting": "[1]; hydrochloride", "result": "high selectivity; also recorded: highest specificity"},
      {"measurement": "pIC50", "setting": "[1]", "result": 6.34}
    ]},
    {"compound": "CCCCc1cn(Cc2ccc(-c3noc(C[C@@H]4CCCN4C(=N)N)n3)cc2)nn1.Cl", "note": "[Compound 21d, (S)-2-((3-(4-((4-Butyl-1H-1,2,3-triazol-1-yl)methyl)phenyl)-1,2,4-oxadiazol-5-yl)methyl)pyrrolidine-1-carboximidamide hydrochloride]", "values": [
      {"measurement": "SphK2 inhibitory activity (in words)", "setting": "[1]", "result": "no inhibitory activity"},
      {"measurement": "selectivity/specificity for SphK2 over SphK1", "setting": "[1]; hydrochloride", "result": "lowest specificity; also recorded: no selectivity"}
    ]},
    {"compound": "COc1ccc(-c2cn(Cc3ccc(-c4noc(C[C@@H]5CCCN5C(=N)N)n4)cc3)nn2)cc1.Cl", "note": "[Compound 21e, (S)-2-((3-(4-((4-(4-Methoxyphenyl)-1H-1,2,3-triazol-1-yl)methyl)phenyl)-1,2,4-oxadiazol-5-yl)methyl)pyrrolidine-1-carboximidamide hydrochloride]", "values": [
      {"measurement": "antitumor activity / reduction of U-251 MG cell viability (in words)", "setting": "[2]", "result": "comparable reduction"},
      {"measurement": "selectivity/specificity for SphK2 over SphK1", "setting": "[1]; hydrochloride", "result": "high selectivity; also recorded: highest specificity"},
      {"measurement": "pIC50", "setting": "[1]", "result": 6.19}
    ]},
    {"compound": "Cl.N=C(N)N1CCC[C@H]1Cc1nc(-c2ccc(Cn3cc(C4CC4)nn3)cc2)no1", "note": "[Compound 21f, (S)-2-((3-(4-((4-Cyclopropyl-1H-1,2,3-triazol-1-yl)methyl)phenyl)-1,2,4-oxadiazol-5-yl)methyl)pyrrolidine-1-carboximidamide hydrochloride]", "values": [
      {"measurement": "SphK2 inhibitory activity (in words)", "setting": "[1]", "result": "no inhibitory activity"},
      {"measurement": "selectivity/specificity for SphK2 over SphK1", "setting": "[1]; hydrochloride", "result": "lowest specificity; also recorded: no selectivity"}
    ]},
    {"compound": "Cl.Cn1cc(-c2cn(Cc3ccc(-c4noc(C[C@@H]5CCCN5C(=N)N)n4)cc3)nn2)cn1", "note": "[Compound 21g, (S)-2-((3-(4-((4-(1-Methyl-1H-pyrazol-4-yl)-1H-1,2,3-triazol-1-yl)methyl)phenyl)-1,2,4-oxadiazol-5-yl)methyl)pyrrolidine-1-carboximidamide hydrochloride]", "values": [
      {"measurement": "selectivity/specificity for SphK2 over SphK1", "setting": "[1]; hydrochloride", "result": "high selectivity; also recorded: highest specificity"},
      {"measurement": "pIC50", "setting": "[1]", "result": 6.63}
    ]},
    {"compound": "Cl.N=C(N)N1CCC[C@H]1c1nc(-c2ccc(Cn3cc(-c4ccc(C(F)(F)F)cc4)nn3)cc2)no1", "note": "[Compound 25b, (S)-2-((3-(4-((4-(4-(Trifluoromethyl)phenyl)-1H-1,2,3-triazol-1-yl)methyl)phenyl)-1,2,4-oxadiazol-5-yl)pyrrolidine-1-carboximidamide hydrochloride]", "values": [
      {"measurement": "pIC50", "setting": "[3]", "result": 4.91},
      {"measurement": "pIC50", "setting": "[1]", "result": 6.44}
    ]},
    {"compound": "Cl.N=C(N)N1CCC[C@H]1c1nc(-c2ccc(Cn3cc(-c4ccc(C(F)(F)F)cc4)nn3)cc2)no1", "note": "[Compound 25b]", "values": [
      {"measurement": "antitumor activity / reduction of U-251 MG cell viability (in words)", "setting": "[2]; hydrochloride", "result": "high anti-tumor activity; also recorded: higher antitumor activity; also recorded: tremendously decreased; also recorded: significant reduction"}
    ]},
    {"compound": "Cl.N=C(N)N1CCC[C@H]1c1nc(-c2ccc(Cn3cc(-c4ccccn4)nn3)cc2)no1", "note": "[Compound 25c, (S)-2-(3-(4-((4-(Pyridin-2-yl)-1H-1,2,3-triazol-1-yl)methyl)phenyl)-1,2,4-oxadiazol-5-yl)pyrrolidine-1-carboximidamide hydrochloride]", "values": [
      {"measurement": "selectivity/specificity for SphK2 over SphK1", "setting": "[1]", "result": "lowest specificity"},
      {"measurement": "pIC50", "setting": "[1]; hydrochloride", "result": 6.05}
    ]},
    {"compound": "COc1ccc(-c2cn(Cc3ccc(-c4noc([C@@H]5CCCN5C(=N)N)n4)cc3)nn2)cc1.Cl", "note": "[Compound 25d, (S)-2-((3-(4-((4-(4-Methoxyphenyl)-1H-1,2,3-triazol-1-yl)methyl)phenyl)-1,2,4-oxadiazol-5-yl)-pyrrolidine-1-carboximidamide hydrochloride]", "values": [
      {"measurement": "pIC50", "setting": "[3]", "result": 4.11},
      {"measurement": "pIC50", "setting": "[1]", "result": 6.58}
    ]},
    {"compound": "COc1ccc(-c2cn(Cc3ccc(-c4noc([C@@H]5CCCN5C(=N)N)n4)cc3)nn2)cc1.Cl", "note": "[Compound 25d]", "values": [
      {"measurement": "antitumor activity / reduction of U-251 MG cell viability (in words)", "setting": "[2]", "result": "comparable reduction"}
    ]},
    {"compound": "N=C(N)N1CCC[C@H]1c1nc(-c2ccc(Cn3cc(-c4cccs4)nn3)cc2)no1", "note": "[Compound 25e, (S)-2-((3-(4-((4-(Thiophen-2-yl)-1H-1,2,3-triazol-1-yl)methyl)phenyl)-1,2,4-oxadiazol-5-yl)-pyrrolidine-1-carboximidamide hydrochloride]", "values": [
      {"measurement": "pIC50", "setting": "[1]", "result": 6.16}
    ]},
    {"compound": "CCCCc1cn(Cc2ccc(-c3noc([C@@H]4CCCN4C(=N)N)n3)cc2)nn1.Cl", "note": "[Compound 25f, (S)-2-((3-(4-((4-Butyl-1H-1,2,3-triazol-1-yl)methyl)phenyl)-1,2,4-oxadiazol-5-yl)pyrrolidine-1-carboximidamide hydrochloride]", "values": [
      {"measurement": "pIC50", "setting": "[1]", "result": 6.60}
    ]},
    {"compound": "CCCCc1cn(Cc2ccc(-c3noc([C@@H]4CCCN4C(=N)N)n3)cc2)nn1.Cl", "note": "[Compound 25f]", "values": [
      {"measurement": "selectivity/specificity for SphK2 over SphK1", "setting": "[1]", "result": "high selective"}
    ]},
    {"compound": "N=C(N)N1CCC[C@H]1c1nc(-c2ccc(Cn3cc(-c4ccc(F)cc4)nn3)cc2)no1", "note": "[Compound 25g, (S)-2-((3-(4-((4-(4-Fluorophenyl)-1H-1,2,3-triazol-1-yl)methyl)phenyl)-1,2,4-oxadiazol-5-yl)-pyrrolidine-1-carboximidamide hydrochloride]", "values": [
      {"measurement": "pIC50", "setting": "[1]", "result": 6.41}
    ]},
    {"compound": "Cl.N=C(N)N1CCC[C@H]1c1nc(-c2ccc(Cn3cc(C4CC4)nn3)cc2)no1", "note": "[Compound 25h, (S)-2-((3-(4-((4-Cyclopropyl-1H-1,2,3-triazol-1-yl)methyl)phenyl)-1,2,4-oxadiazol-5-yl)pyrrolidine-1-carboximidamide hydrochloride]", "values": [
      {"measurement": "pIC50", "setting": "[1]", "result": 6.61}
    ]},
    {"compound": "Cl.N=C(N)N1CCC[C@H]1c1nc(-c2ccc(Cn3cc(C4CC4)nn3)cc2)no1", "note": "[Compound 25h]", "values": [
      {"measurement": "selectivity/specificity for SphK2 over SphK1", "setting": "[1]", "result": "high selective"}
    ]},
    {"compound": "Cl.N=C(N)C1(c2nc(-c3ccc(Cn4cc(-c5ccccc5)nn4)cc3)no2)CC1", "note": "[Compound 29a, 1-(3-(4-((4-Phenyl-1H-1,2,3-triazol-1-yl)methyl)phenyl)-1,2,4-oxadiazol-5-yl)cyclopropanecarboximidamide hydrochloride]", "values": [
      {"measurement": "selectivity/specificity for SphK2 over SphK1", "setting": "[1]", "result": "highly selective"},
      {"measurement": "pIC50", "setting": "[1]", "result": 6.58}
    ]},
    {"compound": "Cn1cc(-c2cn(Cc3ccc(-c4noc(C5(C(=N)N)CC5)n4)cc3)nn2)cn1", "note": "[Compound 29b, hydrochloride]", "values": [
      {"measurement": "selectivity/specificity for SphK2 over SphK1", "setting": "[1]", "result": "highly selective"}
    ]},
    {"compound": "Cn1nccc1-c1cn(Cc2ccc(-c3noc(C4(C(=N)N)CC4)n3)cc2)nn1", "note": "[Compound 29b, hydrochloride]", "values": [
      {"measurement": "pIC50", "setting": "[1]", "result": 6.57}
    ]},
    {"compound": "N=C(N)C1(c2nc(-c3ccc(Cn4cc(C5CC5)nn4)cc3)no2)CC1", "note": "[Compound 29c, 1-(3-(4-((4-Cyclopropyl-1H-1,2,3-triazol-1-yl)methyl)phenyl)-1,2,4-oxadiazol-5-yl)cyclopropanecarboximidamide hydrochloride]", "values": [
      {"measurement": "pIC50", "setting": "[1]", "result": 6.14}
    ]},
    {"compound": "ABC294640 [Compound 7, reference compound]", "values": [
      {"measurement": "reduction of viability of U-251 MG cells", "setting": "[2]; versus no treatment control", "result": "approximately 50%"}
    ]}
  ]
}
